In general, IC50 refers to the concentration at which inhibition is half-maximal.

The results in this text go back to paper PMC8168755, “Discovery of new VEGFR-2 inhibitors based on bis([1, 2, 4]triazolo)[4,3-a:3',4'-c]quinoxaline derivatives as anticancer agents and apoptosis inducers” (Journal of Enzyme Inhibition and Medicinal Chemistry, 2021).

Like-named read-outs stand apart in the source and are kept apart here.

The subject of test [1] is MCF-7 and HepG2 cell lines. Kind of test: In vitro anti-proliferative activity (MTT assay), stated over both cell lines. In kind it is cell-based. The following applies: Homo sapiens, read-out: IC50 values ranging over the two cell lines (MCF-7 and HepG2).
The target in test [2] is VEGFR-2 (Homo sapiens, UniProt P35968). Kind of test: biochemical. As for the experimental part: All the synthesised compounds were tested for their inhibitory activity against VEGFR-2 as described in Supplementary data[75].
Experimental of biological testing […]
2. In vitro VEGFR-2 kinase assay
All the synthesized compounds were tested for its inhibitory activity against VEGFR-2. Human VEGFR-2 ELISA kit (Enzyme-Linked Immunosorbent Assay) was utilized in this test. At first, specific antibody for VEGFR-2 was seeded on a 96-well plate and 100 μL of the standard solution or the tested compound was added, all were incubated at room temperature for 2.5 h. Then washed, 100 μL of the prepared biotin antibody was added, then incubated at room temperature for additional 1 h. and washed. Then, 100 μL of streptavidin solution was added and incubated for 45 min. at room temperature. Washed again, 100 μL of TMB Substrate reagent was added and incubated for 30 min. at room temperature. 50 μL of the stop solution was added, then read at 450 […]
nm immediately. […]

Test [3] relates to HepG2. Description: In vitro anti-proliferative activity (MTT assay), HepG2. In kind it is cell-based, human. The following applies: read-out: IC50 (µM) HepG2. The procedure:
(§1) All newly prepared compounds were assessed for their in vitro cytotoxic efficiencies via standard MTT method, against breast cancer (MCF-7) and hepatocellular carcinoma (HepG2) cell lines.
(§2) MTT assay protocol[55–57]^,[74] was applied as described in Supplementary data.
(§3) Experimental of biological testing
(§4) 1. In vitro anti-proliferative activity
(§5) the synthesized compounds.
(§6) oC for 48 h under 5% CO2.
(§7) the synthesized compounds and incubated for 24 h.
A general note: Formazan colour is commonly taken as a measure of viable cells.

Test [4] concerns MCF-7. Kind of test: In vitro anti-proliferative activity (MTT assay), MCF-7. In kind it is cell-based, human. The following applies: read-out: IC50 (µM) MCF-7. As for the experimental part: as §1, §2, §3, §4, §5, §6, §7
Test [5] deals with BAX. The following applies: HepG2, 24 h.
Test [6] has as its system Bcl-2. The following applies: HepG2, 24 h.
The mark [7] stands for this setting: MTT, range stated for a group of compounds and both cell lines.
The mark [8] stands for this setting: mean ± SD of three separate experiments.
Setting [9] is: Homo sapiens, HepG2, MTT, 24 h treatment, mean ± SD of three separate experiments.
The mark [10] stands for this setting: Homo sapiens, MCF7, MTT, 24 h treatment, mean ± SD of three separate experiments.
Setting [11] is: control 1.00, mean ± SEM of three experiments.
Where [12] appears, read: MTT, 24 h treatment, mean ± SD of three separate experiments.

Sequence of VEGFR-2 (P35968 20-1356): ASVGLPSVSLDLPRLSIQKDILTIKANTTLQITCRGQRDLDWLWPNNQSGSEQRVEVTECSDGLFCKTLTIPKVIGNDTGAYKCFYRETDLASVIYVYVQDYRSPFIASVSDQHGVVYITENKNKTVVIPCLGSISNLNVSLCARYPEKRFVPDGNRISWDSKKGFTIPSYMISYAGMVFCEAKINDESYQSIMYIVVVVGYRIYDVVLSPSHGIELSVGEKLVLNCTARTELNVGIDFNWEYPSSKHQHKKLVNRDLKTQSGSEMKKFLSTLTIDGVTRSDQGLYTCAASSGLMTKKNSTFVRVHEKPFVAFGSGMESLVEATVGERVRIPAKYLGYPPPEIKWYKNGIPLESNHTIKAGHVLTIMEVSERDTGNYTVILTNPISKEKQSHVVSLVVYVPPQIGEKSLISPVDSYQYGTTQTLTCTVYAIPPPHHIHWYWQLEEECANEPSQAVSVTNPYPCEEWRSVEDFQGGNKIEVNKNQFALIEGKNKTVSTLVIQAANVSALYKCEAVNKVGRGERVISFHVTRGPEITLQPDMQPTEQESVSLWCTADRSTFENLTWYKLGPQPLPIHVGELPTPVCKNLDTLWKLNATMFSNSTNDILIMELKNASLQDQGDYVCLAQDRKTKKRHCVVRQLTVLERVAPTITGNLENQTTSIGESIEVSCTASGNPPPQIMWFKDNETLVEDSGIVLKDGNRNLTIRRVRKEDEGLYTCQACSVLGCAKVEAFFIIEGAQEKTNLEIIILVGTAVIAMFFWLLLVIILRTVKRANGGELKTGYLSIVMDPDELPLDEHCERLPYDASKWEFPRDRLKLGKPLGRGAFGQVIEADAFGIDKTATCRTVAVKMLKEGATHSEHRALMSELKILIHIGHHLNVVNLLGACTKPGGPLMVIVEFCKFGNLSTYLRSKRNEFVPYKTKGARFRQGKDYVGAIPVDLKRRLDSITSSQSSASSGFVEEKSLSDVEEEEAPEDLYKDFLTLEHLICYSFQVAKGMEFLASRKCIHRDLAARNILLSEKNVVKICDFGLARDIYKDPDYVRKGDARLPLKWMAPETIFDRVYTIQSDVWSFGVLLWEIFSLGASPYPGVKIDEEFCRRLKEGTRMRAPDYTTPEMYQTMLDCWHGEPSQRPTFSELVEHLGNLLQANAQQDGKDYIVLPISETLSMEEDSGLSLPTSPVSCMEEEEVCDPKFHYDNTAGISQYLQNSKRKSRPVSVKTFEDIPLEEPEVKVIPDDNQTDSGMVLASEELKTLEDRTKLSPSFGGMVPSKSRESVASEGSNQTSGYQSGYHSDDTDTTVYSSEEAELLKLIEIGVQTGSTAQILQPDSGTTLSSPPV

On to `CCNC(=O)c1ccc(NC(=O)CSc2nnc3c4nncn4c4ccccc4n23)cc1` [Compound 23a, 4-(2-(Bis([1,2, 4]triazolo)[4,3-a:3',4'-c]quinoxalin-3-ylthio)acetamido)-N-ethylbenzamide], for which the IC50 in test [1] (setting [7]) is 6.4 to 19.4 µM; in test [2] (setting [8]), 7.1 ± 0.4 nM; in test [3] (setting [9]) it was 11.3 ± 0.9 µM; in test [4] (setting [10]), 17.7 ± 1.5 µM.

As for `CCCCNC(=O)c1ccc(NC(=O)CSc2nnc3c4nncn4c4ccccc4n23)cc1` [Compound 23b, 4-(2-(Bis([1,2, 4]triazolo)[4,3-a:3',4'-c]quinoxalin-3-ylthio)acetamido)-N-butylbenzamide], the IC50 turned out to be 71.6 ± 5.2 nM in test [2] (setting [8]), 69.1 ± 6.1 µM in test [3] (setting [9]) and 78.9 ± 6.1 µM in test [4] (setting [10]).

With `CCC(C)NC(=O)c1ccc(NC(=O)CSc2nnc3c4nncn4c4ccccc4n23)cc1` (stereo not drawn) [Compound 23c, 4-(2-(Bis([1,2, 4]triazolo)[4,3-a:3',4'-c]quinoxalin-3-ylthio)acetamido)-N-(sec-butyl)benzamide], the results for the half-maximal inhibitory concentration (IC50) in test [2] (setting [8]), in test [3] (setting [9]) and in test [4] (setting [10]) were 47.1 ± 4.2 nM, 69.8 ± 5.9 µM and 76.2 ± 6.9 µM, respectively.

`CC(C)(C)NC(=O)c1ccc(NC(=O)CSc2nnc3c4nncn4c4ccccc4n23)cc1` [Compound 23d, 4-(2-(Bis([1,2, 4]triazolo)[4,3-a:3',4'-c]quinoxalin-3-ylthio)acetamido)-N-(tert-butyl)benzamide]: the half-maximal inhibitory concentration (IC50) in test [1] (setting [7]) was 15.2 to 48.3 µM; in test [2] (setting [8]) it was 11.8 ± 0.8 nM; in test [3] (setting [9]) it was 17.5 ± 1.2 µM; in test [4] (setting [10]), 21.6 ± 1.8 µM.

Turning to `O=C(CSc1nnc2c3nncn3c3ccccc3n12)Nc1ccc(C(=O)NC2CCCC2)cc1` [Compound 23e, 4-(2-(Bis([1,2, 4]triazolo)[4,3-a:3',4'-c]quinoxalin-3-ylthio)acetamido)-N-cyclopentylbenzamide], the figures for the IC50 in test [2] (setting [8]), in test [3] (setting [9]) and in test [4] (setting [10]) were 39.8 ± 3.1 nM, 74.8 ± 6.9 µM and 78.3 ± 6.5 µM, respectively.

`O=C(CSc1nnc2c3nncn3c3ccccc3n12)Nc1ccc(C(=O)NC2CCCCC2)cc1` [Compound 23f, 4-(2-(Bis([1,2, 4]triazolo)[4,3-a:3',4'-c]quinoxalin-3-ylthio)acetamido)-N-cyclohexylbenzamide]: the figures for the IC50 in test [2] (setting [8]), in test [3] (setting [9]) and in test [4] (setting [10]) were 39.5 ± 2.9 nM, 70.4 ± 5.8 µM and 74.1 ± 6.7 µM, respectively.

For `CC(=O)c1ccc(NC(=O)c2ccc(NC(=O)CSc3nnc4c5nncn5c5ccccc5n34)cc2)cc1` [Compound 23g, N-(4-Acetylphenyl)-4-(2-(bis([1,2, 4]triazolo)[4,3-a:3',4'-c]quinoxalin-3-ylthio)acetamido)benzamide], the IC50 in test [2] (setting [8]) was 62.7 ± 5.7 nM; in test [3] (setting [9]) it was 80.7 ± 7.1 µM; in test [4] (setting [10]), 81.3 ± 7.4 µM.

As for `O=C(CSc1nnc2c3nncn3c3ccccc3n12)Nc1ccc(C(=O)Nc2cccc(Cl)c2)cc1` [Compound 23h, 4-(2-(Bis([1,2, 4]triazolo)[4,3-a:3',4'-c]quinoxalin-3-ylthio)acetamido)-N-(3-chlorophenyl)benzamide], the half-inhibitory concentration (IC50) in test [1] was 15.2 to 48.3 µM; in test [2], 11.7 ± 0.9 nM; in test [3] (Homo sapiens, HepG2, 24 h), 22.3 ± 1.8 µM; in test [4] (Homo sapiens, MCF7, 24 h), 37.2 ± 3.2 µM.

In turn, `O=C(CSc1nnc2c3nncn3c3ccccc3n12)Nc1ccc(C(=O)Nc2ccc(Cl)cc2)cc1` [Compound 23i, 4-(2-(Bis([1,2, 4]triazolo)[4,3-a:3',4'-c]quinoxalin-3-ylthio)acetamido)-N-(4-chlorophenyl)benzamide] registered a concentration for half-maximal inhibition (IC50) in test [2] (setting [8]) of 9.4 ± 0.7 nM.

Take `O=C(CSc1nnc2c3nncn3c3ccccc3n12)Nc1ccc(C(=O)Nc2cc(Cl)ccc2Cl)cc1` [Compound 23j, 4-(2-(Bis([1,2, 4]triazolo)[4,3-a:3′,4′-c]uinoxaline-3-ylthio)acetamido)-N-(2,5-dichlorophenyl)benzamide]: the “Increase of BAX level” value in test [5] (compared to control cells) is 1.65 fold. The “Protein expression (normalized to β-actin) BAX” value in test [5] (setting [11]) is 1.65 ± 0.06. Also, the “Decrease of Bcl-2 level” value in test [6] (compared to control cells) was determined as 2.63 fold. Moreover, the “Protein expression (normalized to β-actin) Bcl-2” value in test [6] (setting [11]) is listed as 0.38 ± 0.03. In addition, the 50% inhibitory concentration (IC50) in test [2] was found to be 3.7 ± 0.2 nM; in test [3] (setting [12]), 6.4 ± 0.5 µM; in test [4] (setting [12]) it was 10.3 ± 0.8 µM.

On to `O=C(CSc1nnc2c3nncn3c3ccccc3n12)Nc1ccc(C(=O)Nc2ccc(F)cc2)cc1` [Compound 23k, 4-(2-(Bis([1,2, 4]triazolo)[4,3-a:3′,4′-c]uinoxaline-3-ylthio)acetamido)-N-(4-fluorophenyl)benzamide], for which the IC50 worked out at 49.6 ± 4.1 nM in test [2] (setting [8]), 71.8 ± 6.3 µM in test [3] (setting [9]) and 68.2 ± 5.2 µM in test [4] (setting [10]).

With `O=C(CSc1nnc2c3nncn3c3ccccc3n12)Nc1ccc(C(=O)Nc2ccccc2O)cc1` [Compound 23l, 4-(2-(Bis([1,2, 4]triazolo)[4,3-a:3′,4′-c]uinoxaline-3-ylthio)acetamido)-N-(2-hydroxyphenyl)benzamide], the figures for the IC50 in test [2] (setting [8]), in test [3] (setting [12]) and in test [4] (setting [12]) were 5.8 ± 0.3 nM, 11.3 ± 0.7 µM and 19.4 ± 1.1 µM, respectively.

On to `O=C(CSc1nnc2c3nncn3c3ccccc3n12)Nc1ccc(C(=O)Nc2ccc(O)cc2)cc1` [Compound 23m, 4-(2-(Bis([1,2, 4]triazolo)[4,3-a:3′,4′-c]uinoxaline-3-ylthio)acetamido)-N-(4-hydroxyphenyl)benzamide], for which the half-inhibitory concentration (IC50) in test [1] (setting [7]) was 15.2 to 48.3 µM; in test [2] (setting [8]) it was 9.7 ± 0.7 nM; in test [3] (setting [9]), 15.2 ± 1.2 µM; in test [4] (setting [10]), 21.6 ± 1.7 µM.

Regarding `O=C(CSc1nnc2c3nncn3c3ccccc3n12)Nc1ccc(C(=O)Nc2ccc([N+](=O)[O-])cc2O)cc1` [Compound 23n, 4-(2-(Bis([1,2, 4]triazolo)[4,3-a:3′,4′-c]uinoxaline-3-ylthio)acetamido)-N-(2-hydroxy-4-nitrophenyl)benzamide], the half-maximal inhibitory concentration (IC50) was 6.4 to 19.4 µM in test [1] (setting [7]), 7.4 ± 0.5 nM in test [2] (setting [8]), 12.7 ± 0.9 µM in test [3] (setting [9]) and 16.5 ± 1.3 µM in test [4] (setting [10]).

For `O=C(CSc1nnc2c3nncn3c3ccccc3n12)Nc1ccc(C(=O)NNC(=O)c2ccccc2Cl)cc1` [Compound 24a, 2-(Bis([1,2, 4]triazolo)[4,3-a:3',4'-c]quinoxalin-3-ylthio)-N-(4–(2-(2-chlorobenzoyl)hydrazine-1-carbonyl)phenyl)acetamide], the IC50 in test [1] (setting [7]) was 15.2 to 48.3 µM; in test [2] (setting [8]), 23.9 ± 1.9 nM; in test [3] (setting [9]), 34.5 ± 2.8 µM; in test [4] (setting [10]), 48.3 ± 3.9 µM.

As for `O=C(CSc1nnc2c3nncn3c3ccccc3n12)Nc1ccc(C(=O)NNC(=O)c2cccc(Cl)c2)cc1` [Compound 24b, 2-(Bis([1,2, 4]triazolo)[4,3-a:3',4'-c]quinoxalin-3-ylthio)-N-(4–(2-(3-chlorobenzoyl)hydrazine-1-carbonyl)phenyl)acetamide], the IC50 in test [1] (setting [7]) is 15.2 to 48.3 µM; in test [2] (setting [8]) it was 22.3 ± 1.8 nM; in test [3] (setting [9]) it was 30.3 ± 2.7 µM; in test [4] (setting [10]), 42.7 ± 3.7 µM.

As to `O=C(CSc1nnc2c3nncn3c3ccccc3n12)Nc1ccc(C(=O)NNC(=O)c2ccccc2O)cc1` [Compound 24c, 2-(Bis([1,2, 4]triazolo)[4,3-a:3',4'-c]quinoxalin-3-ylthio)-N-(4–(2-(2-hydroxybenzoyl)hydrazine-1-carbonyl)phenyl)acetamide], the IC50 was 15.2 to 48.3 µM in test [1] (setting [7]), 20.7 ± 1.6 nM in test [2] (setting [8]), 29.8 ± 2.1 µM in test [3] (setting [9]) and 40.7 ± 3.7 µM in test [4] (setting [10]).

`CNC(=O)c1cc(Oc2ccc(NC(=O)Nc3ccc(Cl)c(C(F)(F)F)c3)cc2)ccn1` [Sorafenib, sorafenib, reference compound]: the IC50 came out at 2.17 ± 0.14 µM in test [3] (setting [9]) and 3.51 ± 0.22 µM in test [4] (setting [10]).
